Source: patent US20120122936A1, “LEAVE-ON NONSOLID SKIN CONDITIONING COMPOSITIONS CONTAINING 12-[(12-HYDROXYOCTADECANOYL)OXY] OCTADECANOIC ACID” (CONOPCO, INC., D/B/A UNILEVER, priority 2010, published 2012)

Experiments:
[1] = Observation of mixtures with lipophilic cosmetically acceptable carriers (gelling vs flowable liquid); assay type: physicochemical; settings: for Result of mixtures with indicated carriers: 10% in 90% carrier, summary of Table 3
Method: Various mixtures were prepared with common lipohilic cosmetically acceptable carrier that are liquid at temperatures up to 40° C. Observation were recorded in Table 3.

[2] = system: primary human neonatal fibroblasts; experiment: ATP production by primary human fibroblasts, CellTiter-Glo luminescent cell viability assay; assay type: cell-based; settings: for Luminescence reading (average): 2 x 24 h dosing, 4 wells, 0.1% DMSO control 2245457; for Effect on fibroblast energy production (ATP, luminescence readings): statistically significant improvement at 100 μM
Method: The effect of 12HSA and 12-[(12-hydroxyoctadecanoyl)oxy]octadecanoic acid on ATP production by primary human fibroblasts was assayed.
The samples were prepared as in Example 2, except the final concentrations were at 0.1 μM, 1 μM, 10 μM, 100 μM for both compounds. Again 0.1% DMSO in media is used as the vehicle control. Primary human neonatal fibroblasts grown in DMEM medium (high glucose supplemented with 2 mM Lglutamine, 10% fetal bovine serum, antibiotic) to 70% confluency, trypsinized, and re-suspended in medium. 7,500 cells seeded per well in the inner 60 wells of a 96-well plate in the same DMEM medium and grown for 3 days. The medium removed and the cells washed with serum-free DMEM, and then dosed with 200 μl serum-free DMEM medium containing appropriate concentrations of the testing compounds. Each dosing was replicated in 4 wells. After 24 hours, test compound solution was removed and the cells were treated with a fresh solution of the same treatment. After another 24 hours, the ATP production of the cultures was assayed by CellTiter-Glo luminescent Cell viability assay (Promega #G7572) and luminescence readings measured. Average readings were calculated for every treatment.
Statistical analysis was done by student t-Test with the assumption that the two samples had two tailed distribution with equal variance.

[3] = system: primary human keratinocytes; experiment: Involucrin expression (differentiation) in primary human keratinocytes, Western blot; assay type: cell-based; settings: for Involucrin expression (arbitrary unit) at day 1: day 1 (24 h), 0.1% DMSO control 27.85; for Involucrin expression (arbitrary unit) at day 2: day 2 (48 h), 0.1% DMSO control 33.91; for Effect on human keratinocyte differentiation (involucrin expression compared to vehicle control): vs 0.1% DMSO, day 2
Method: The effect of 12HSA and 12-[(12-hydroxyoctadecanoyl)oxy]octadecanoic acid on differentiation in primary human keratinocytes was evaluated.
The compounds were dissolved in DMSO at 10 mM as the initial stock solutions and then diluted to appropriate final concentrations, 0.1 μM, 1 μM, 10 μM for 12-[(12-hydroxyoctadecanoyl)oxy]octadecanoic acid and 1 μM, 10 μM for the monomer with culture medium for treatments. 0.1% DMSO was used as the vehicle control. Primary human keratinocytes (Passage 2) grown to 70% confluency in EpiLife medium (Gibco MEP1500CA, 0.06 mM Calcium), trypsinized, cell number counted and Re-suspended in medium to make final cell counts at 5×10^4/ml. 100, 000 cells seeded per well in a 6 well plate. The cells again grown to 70% confluency, and then treated with 12-HSA monomer, 12-[(12-hydroxyoctadecanoyl)oxy]octadecanoic acid, and 0.1% DMSO as control. Treated cells incubated for 24 h and 48 h, and harvested at the corresponding time points. Proteins were extracted from the cultures and protein concentration was quantified by Quick start Bradford dye reagent (BioRad #500-0205). 5 ug protein samples were subjected to 4-20% protein gel (BioRad Criterion #345-0034), separated by running gel at 175 Volt for about 1 hour. Proteins were transferred to PVDF membrane (iBlot Gel transfer stacks PVDF, Invitrogen IB4010-01). The PVDF membrane was blocked in 1% BSA/PBS for 30 min and incubated with involucrin primary antibody (1:4000 dilution) in 1% BSA/PBS at 4° C. O/N (Sigma 19018), washed three times with TBS-Tween (Sigma T-9039) for 15 min each. The membrane then incubated with a secondary antibody in 1% BSA/PBS at RT for 1 h (Cy5-conjugated Affipure Goat anti mouse IgG, Jackson ImmunoResearch Lab #115-175-003), washed three times with TBS-Tween for 15 min each, and scanned with Licor/Odyssey (Li-Cor Bioscience). The images obtained were analyzed for the involucrin bands for signal intensity by Odyssey v3.0 analysis program (Li-Cor Bioscience).

CCCCCCC(O)CCCCCCCCCCC(=O)O (stereo not shown) [12HSA, 12-hydroxyoctadecanoic acid, reference compound]
Observations ([1]; 10% in 90% DC200-10cS): paste | Observations ([1]; 10% in 90% Isopropyl palmitate): hard gel | Observations ([1]; 10% in 90% Light Mineral Oil): hard gel | Observations ([1]; 10% in 90% Sunflower seed oil): hard gel | Observations ([1]; 10% in 90% Tween40): gel | Result of mixtures with indicated carriers [1]: gelled the carrier | Observations ([1]; 10% in 90% cyclomethicone-D5): soft gel | Observations ([1]; 10% in 90% isostearyl alcohol): gel | Observations ([1]; 10% in 90% oleic acid): gel | Luminescence reading (average) ([2]; 0.1 μM): 2359722 | Luminescence reading (average) ([2]; 1 μM): 2398308 | Luminescence reading (average) ([2]; 10 μM): 2304763 | Luminescence reading (average) ([2]; 100 μM): 2151797 | Effect on fibroblast energy production (ATP, luminescence readings) [2]: did not | Involucrin expression (arbitrary unit) at day 1 ([3]; 1 μM): 26.7 arbitrary unit | Involucrin expression (arbitrary unit) at day 2 ([3]; 1 μM): 56.03 arbitrary unit | Involucrin expression (arbitrary unit) at day 1 ([3]; 10 μM): 34.51 arbitrary unit | Involucrin expression (arbitrary unit) at day 2 ([3]; 10 μM): 69.52 arbitrary unit | Effect on human keratinocyte differentiation (involucrin expression compared to vehicle control) [3]: stimulated human keratinocyte differentiation

CCCCCCC(O)CCCCCCCCCCC(=O)OC(CCCCCC)CCCCCCCCCCC(=O)O (stereo not shown) [12-[(12-hydroxyoctadecanoyl)oxy]octadecanoic acid]
Observations ([1]; 10% in 90% DC200-10cS): flowable | Observations ([1]; 10% in 90% Isopropyl myristate): liquid | Observations ([1]; 10% in 90% Light Mineral Oil): flowable | Observations ([1]; 10% in 90% Sunflower seed oil): clear | Observations ([1]; 10% in 90% Tween40): clear | Result of mixtures with indicated carriers [1]: flowable, or even clear, liquids | Observations ([1]; 10% in 90% cyclomethicone-D5): flowable | Observations ([1]; 10% in 90% isostearyl alcohol): clear | Observations ([1]; 10% in 90% oleic acid): clear | Luminescence reading (average) ([2]; 0.1 μM): 2261382 | Luminescence reading (average) ([2]; 1 μM): 2550326 | Luminescence reading (average) ([2]; 10 μM): 2594799 | Luminescence reading (average) ([2]; 100 μM): 2794979 | Effect on fibroblast energy production (ATP, luminescence readings) [2]: stimulated fibroblast energy production | Involucrin expression (arbitrary unit) at day 1 ([3]; 0.1 μM): 35.85 arbitrary unit | Involucrin expression (arbitrary unit) at day 2 ([3]; 0.1 μM): 32.61 arbitrary unit | Involucrin expression (arbitrary unit) at day 1 ([3]; 1 μM): 36.67 arbitrary unit | Involucrin expression (arbitrary unit) at day 2 ([3]; 1 μM): 33.14 arbitrary unit | Involucrin expression (arbitrary unit) at day 1 ([3]; 10 μM): 33.77 arbitrary unit | Involucrin expression (arbitrary unit) at day 2 ([3]; 10 μM): 29.46 arbitrary unit | Effect on human keratinocyte differentiation (involucrin expression compared to vehicle control) [3]: did not have an effect
